# From patent US9765037B2, “Compositions and methods for treating toxoplasmosis, cryptosporidiosis, and other apicomplexan protozoan related diseases” (University of Washington Through its Center for …, priority 2010, dated 2017)
# Where two headings read alike, the source gives them in different places.
# Columns and labels:
# CpCDPK1 = CpCDPK1 (Cryptosporidium parvum (strain Iowa II), UniProt A3FQ16); experiment: biochemical; assay type: biochemical
# SrcKD = SrcKD (Homo sapiens (Human), UniProt P12931); experiment: Tyrosine kinase IC50, SrcKD; assay type: biochemical; settings: Table 9
# AblKD = AblKD (Homo sapiens (Human), UniProt P00519); experiment: Tyrosine kinase IC50, AblKD; assay type: biochemical; settings: Table 9
# HckKD = HckKD (Homo sapiens (Human), UniProt P08631); experiment: Tyrosine kinase IC50, HckKD; assay type: biochemical; settings: Table 9
# PfCDPK1 = PfCDPK1 (Plasmodium falciparum (isolate 3D7), UniProt P62344); experiment: biochemical
# [1] = test system: P. berghei expressing PfCDPK4-2x-myc; experiment: Exflagellation in blood of treated mice infected with P. berghei expressing PfCDPK4-2x-myc; assay type: in vivo, Plasmodium berghei
# [2] = Solubility in buffers of various pH; assay type: physicochemical; settings: buffer
# C. parvum = experiment: Immunosuppressed (SCID-beige) mouse C. parvum model; assay type: in vivo, Cryptosporidium parvum; settings: SCID-beige mice; oral gavage once a day, days 3-7 and 10-14; 29 and 150 at 50 mg/kg/day, Paromomycin 2 g/kg/day
# Experimental: Shown are mean of the parasite numbers detected in 25 mg of stool from each mouse, by qRT-PCR.
# [3] = mouse, in vivo, ip, 50 mg/kg
# in vivo = settings: mouse, ip
# glioma derived (SF539) [4] = experiment: Growth inhibition of human cell line SF539
# [5] = test system: human promyelocytic leukemia (HL-60); experiment: Growth inhibition of human cell line HL-60
# [6] = test system: human lymphocyte (CRL8155); experiment: Growth inhibition of human cell line CRL8155
# [7] = test system: colorectal carcinoma (HC 2998); experiment: Growth inhibition of human cell line HC 2998
# [8] = Blood levels after oral gavage dosing of mice (LC-MS); settings: for AUC / Cmax / Tmax: in vivo
# [9] = test system: P. berghei expressing GFP; experiment: P. berghei transmission from treated mice to A. stephensi
# ABL = ABL (Homo sapiens (Human), UniProt P00519); assay type: biochemical
# PfCDPK4 = PfCDPK4 (Plasmodium falciparum (isolate 3D7), UniProt Q8IBS5); experiment: biochemical
# SRC = SRC (Homo sapiens (Human), UniProt P12931); settings: read-out: IC50 (μM) Src
# Abl3D = Abl3D (Homo sapiens, UniProt P00519); experiment: Tyrosine kinase IC50, Abl3D; assay type: biochemical; settings: Table 9
# human fibroblast = experiment: Human fibroblast replication / cytotoxicity (Alamar blue); assay type: cell-based
# glioma derived (SF539) [10] = settings: human
# [11] = pH 6.5, aqueous buffer, read-out: Experimental Solubility pH 6.5
smiles,measurement,setting,value
"CCOc1ccc2cc(-c3nn(CC4CCNCC4)c4ncnc(N)c34)ccc2c1 [Compound 29, 3-(6-ethoxynaphthalen-2-yl)-1-(piperidin-4-ylmethyl)-1H-pyrazolo[3,4-d]pyrimidin-4-amine]",IC50,"CpCDPK1; Table 8, read-out: IC50 (μM) CpCDPK1",0.0035 µM
same,IC50,CpCDPK1; read-out: Enzymatic Assay IC50 CpCDPK1,0.001 µM
same,IC50,SrcKD,> 20 µM
same,IC50,AblKD,> 20 µM
same,IC50,HckKD,> 10 µM
same,EC50,PfCDPK1,0.353 µM
same,exflagellation 20 hours after dosing,[1]; 50 mg/kg i.p.,some exflagellation was observed
same,exflagellation in blood samples from treated mice,"[1]; 50 mg/kg i.p., 30 minutes post-injection and up to 14 hours later",completely suppressed exflagellation
same,exflagellation in treated mice,"[1]; mice, 10 mg/kg i.p.",sufficient to block exflagellation
same,duration of complete suppression of exflagellation,"[1]; mice, 50 mg/kg i.p.",14 h
same,solubility,"[2]; aqueous buffer, pH 2.0, read-out: Experimental Solubility pH 2.0",34 µM
same,solubility,[2]; [11],47 µM
same,solubility,"[2]; pH 7.4, aqueous buffer, read-out: Experimental Solubility pH 7.4",49 µM
same,parasite burden rebound after treatment,C. parvum,slowly
same,parasites in stool (qRT-PCR) at the end of treatment,C. parvum,not detected
same,peak plasma concentration,[3],8.2 µM
same,plasma levels for 20 hours post-treatment,[3],exceeding 0.4 μM
same,AUC,in vivo; 10 mg/kg,3.18 µM·h
same,Cmax,in vivo; 10 mg/kg,700 nM
same,Tmax,in vivo; 10 mg/kg,0.5 h
same,AUC,in vivo; 50 mg/kg,29.5 µM·h
same,Cmax,in vivo; 50 mg/kg,8200 nM
same,Tmax,in vivo; 50 mg/kg,0.5 h
same,concentration at 20 h,in vivo; 50 mg/kg,410 nM
same,"Cell Toxicity SF539, % at 10 μM",glioma derived (SF539) [4],<30% at 10 μM
same,"Cell Toxicity HL60, % at 10 μM",[5],<30% at 10 μM
same,"Cell Toxicity CRL8155, % at 10 μM",[6],<30% at 10 μM
same,"Cell Toxicity HCC2998, % at 10 μM",[7],<30% at 10 μM
same,"Blood level, First Peak","[8]; mice, 40 mg/kg oral gavage 3x daily for 4 days, 1 hr after first dose, mean±SD, N=3",50 ± 80 nM
same,"Blood level, Fourth D4 Peak","[8]; mice, 40 mg/kg oral gavage 3x daily for 4 days, 1 hr after third dose of d4, mean±SD, N=3",6600 ± 1600 nM
same,"Blood level, First Trough","[8]; mice, 40 mg/kg oral gavage 3x daily for 4 days, 17 hours after dosing, beginning of d2, mean±SD, N=3",0 ± 0 nM
same,concentration at 17 h,"[8]; mouse, blood, po, 40 mg/kg",0 nM
same,AUC,"[8]; mouse, po",20 µM·h
same,Cmax,"[8]; mouse, po",6640 nM
same,Tmax,"[8]; mouse, po",2 h
same,AUC,"[8]; mouse, po, 10 mg/kg",0.95 µM·h
same,Cmax,"[8]; mouse, po, 10 mg/kg",200 nM
same,Tmax,"[8]; mouse, po, 10 mg/kg",2.33 h
same,AUC,"[8]; mouse, po, 50 mg/kg",5.18 µM·h
same,Cmax,"[8]; mouse, po, 50 mg/kg",1100 nM
same,Tmax,"[8]; mouse, po, 50 mg/kg",2.67 h
same,formation of oocysts in A. stephensi fed on treated mice,"[9]; mice treated i.p., Compound 29 at 10 mg/kg, mosquitoes fed 30 minutes after dosing",completely blocked the formation of oocysts
same,impact on asexual parasitaemia or gametocyte rates,"[9]; mice, 10 mg/kg i.p.",no impact
"Nc1ncnc2c1c(Cc1cccc3ccccc13)nn2CC1CCNCC1 [Compound 5h, 3-(naphthalen-1-ylmethyl)-1-(piperidin-4-ylmethyl)-1H-pyrazolo[3,4-d]pyrimidin-4-amine]",IC50,ABL,> 20 µM
same,IC50,SrcKD,> 20 µM
same,IC50,AblKD,> 20 µM
same,IC50,HckKD,> 10 µM
same,EC50,PfCDPK4,0.154 µM
same,IC50,SRC,> 20 µM
same,"Cell Toxicity SF539, % at 10 μM",glioma derived (SF539) [4],<30% at 10 μM
same,GI50,"glioma derived (SF539) [4]; read-out: GI50 (μM) SF539, human cell line SF539",> 10 µM
same,"Cell Toxicity HL60, % at 10 μM",[5],<30% at 10 μM
same,GI50,"[5]; read-out: GI50 (μM) HL60, human cell line HL60",> 10 µM
same,"Cell Toxicity CRL8155, % at 10 μM",[6],<30% at 10 μM
same,GI50,"[6]; read-out: GI50 (μM) CRL8155, human cell line CRL8155",> 10 µM
same,"Cell Toxicity HCC2998, % at 10 μM",[7],<30% at 10 μM
same,GI50,"[7]; read-out: GI50 (μM) HCC2998, human cell line HCC2998",> 10 µM
Nc1nc2ccc(C(=O)c3ccccc3)cc2[nH]1 [Compound 92],IC50,SrcKD,> 10 µM
same,IC50,Abl3D,~10 µM
"Nc1ncnc2c1c(-c1ccc3cc(OCc4ccccc4)ccc3c1)nn2CC1CCNCC1 [Compound 34, 3-(6-(benzyloxy)naphthalen-2-yl)-1-(piperidin-4-ylmethyl)-1H-pyrazolo[3,4-d]pyrimidin-4-amine]",Observed HFF Toxicity (T at concentration),human fibroblast,T at 100 μM
same,IC50,HckKD,1.61 µM
same,EC50,PfCDPK1,0.0272 µM
same,EC50,PfCDPK4,0.0302 µM
same,solubility,[2]; [11],23 µM
same,Cell Toxicity LD50 SF539,glioma derived (SF539) [10],6 µM
same,"Cell Toxicity SF539, % at 10 μM",glioma derived (SF539) [4],104%
same,"Cell Toxicity HL60, % at 10 μM",[5],<30% at 10 μM
same,"Cell Toxicity CRL8155, % at 10 μM",[6],<30% at 10 μM
same,"Cell Toxicity HCC2998, % at 10 μM",[7],30% at 10 μM
